ChEMBL document CHEMBL1201862, “PubChem BioAssay data set” (2004)
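The compound was tested at five concentrations on cells cultured in 96-well plates, with a 48-hour exposure period. GI50 = concentration required for 50% inhibition of growth.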 The source made the active and inactive calls. Rule as the data show it: active = GI50 up to about 1.1 µM and inactive = higher.

What was measured:
Assay in all cases: NCI tumour cell line growth inhibition, 48 h
[1] = tested on: NCI-H460
[2] = tested on: A549
[3] = tested on: ACHN
[4] = tested on: OVCAR-8
[5] = tested on: BT-549
[6] = tested on: MOLT-4
[7] = tested on: MCF7
[8] = tested on: SNB-75
[9] = tested on: A498
[10] = tested on: U-251
[11] = tested on: NCI-H23
[12] = tested on: RXF 393
[13] = tested on: HT-29
[14] = tested on: DU-145
[15] = tested on: UO-31
[16] = tested on: UACC-257
[17] = tested on: NCI-H226
[18] = tested on: HL-60
[19] = tested on: 786-0
[20] = tested on: TK-10
[21] = tested on: SN12C
[22] = tested on: UACC-62
[23] = tested on: SF-295
[24] = tested on: MDA-MB-435
[25] = tested on: SR
[26] = tested on: IGROV-1
[27] = tested on: HOP-92
[28] = tested on: Malme-3M
[29] = tested on: HCT-15
[30] = tested on: RPMI-8226
[31] = tested on: Hs-578T
[32] = tested on: K562
[33] = tested on: EKVX
[34] = tested on: CAKI-1
[35] = tested on: SNB-19
[36] = tested on: OVCAR-5
[37] = tested on: SK-MEL-2
[38] = tested on: KM12
[39] = tested on: MDA-MB-231
[40] = tested on: SF-539
[41] = tested on: HOP-62
[42] = tested on: OVCAR-4
[43] = tested on: OVCAR-3
[44] = tested on: NCI/ADR-RES
[45] = tested on: HCC 2998
[46] = tested on: PC-3
[47] = tested on: SK-OV-3
[48] = tested on: SK-MEL-5
[49] = tested on: SW-620
[50] = tested on: COLO 205
[51] = tested on: HCT-116
[52] = tested on: CCRF-CEM
[53] = tested on: SF-268
[54] = tested on: SK-MEL-28
[55] = tested on: M14
[56] = tested on: NCI-H522
[57] = tested on: T47D
[58] = tested on: LOX IMVI
[59] = tested on: MDA-N

Structure (SMILES): COc1ccc(-c2cc(-c3ccccc3)nc(/N=C\c3ccccc3)n2)c(O)c1
- GI50 [1]: 6.81 µM (inactive)
- GI50 [2]: 26.4 µM (inactive)
- GI50 [3]: 6.47 µM (inactive)
- GI50 [4]: > 70.1 µM (inactive)
- GI50 [5]: > 31.3 µM (inactive)
- GI50 [6]: 4.04 µM (inactive)
- GI50 [7]: 1.64 µM (inactive)
- GI50 [8]: > 100 µM (inactive)
- GI50 [9]: > 100 µM (inactive)
- GI50 [10]: 10.3 µM (inactive)
- GI50 [11]: > 100 µM (inactive)
- GI50 [12]: > 100 µM (inactive)
- GI50 [13]: > 27.9 µM (inactive)
- GI50 [14]: 7.62 µM (inactive)
- GI50 [15]: 3.99 µM (inactive)
- GI50 [16]: > 100 µM (inactive)
- GI50 [17]: > 100 µM (inactive)
- GI50 [18]: 2.71 µM (inactive)
- GI50 [19]: > 100 µM (inactive)
- GI50 [20]: > 100 µM (inactive)
- GI50 [21]: > 29 µM (inactive)
- GI50 [22]: > 27.7 µM (inactive)
- GI50 [23]: 97.7 µM (inactive)
- GI50 [24]: 3.72 µM (inactive)
- GI50 [25]: 3.68 µM (inactive)
- GI50 [26]: 11.5 µM (inactive)
- GI50 [27]: > 100 µM (inactive)
- GI50 [28]: > 80.4 µM (inactive)
- GI50 [29]: 5.37 µM
- GI50 [30]: 2.14 µM (inactive)
- GI50 [31]: > 100 µM (inactive)
- GI50 [32]: 2.44 µM (inactive)
- GI50 [33]: > 26.4 µM (inactive)
- GI50 [34]: 3.02 µM (inactive)
- GI50 [35]: > 36.5 µM (inactive)
- GI50 [36]: > 100 µM (inactive)
- GI50 [37]: 6.52 µM (inactive)
- GI50 [38]: 5.9 µM (inactive)
- GI50 [39]: > 31.3 µM (inactive)
- GI50 [40]: > 100 µM (inactive)
- GI50 [41]: > 57.7 µM (inactive)
- GI50 [42]: > 41.9 µM (inactive)
- GI50 [43]: > 52.2 µM (inactive)
- GI50 [44]: > 86.5 µM (inactive)
- GI50 [45]: > 100 µM (inactive)
- GI50 [46]: 7 µM (inactive)
- GI50 [47]: 7.52 µM (inactive)
- GI50 [48]: 7.05 µM (inactive)
- GI50 [49]: 8 µM (inactive)
- GI50 [50]: > 100 µM (inactive)
- GI50 [51]: > 26.6 µM (inactive)
- GI50 [52]: 4.06 µM (inactive)
- GI50 [53]: > 93.5 µM (inactive)
- GI50 [54]: > 100 µM (inactive)
- GI50 [55]: > 100 µM (inactive)
- GI50 [56]: 3.33 µM (inactive)
- GI50 [57]: 5.62 µM (inactive)
- GI50 [58]: 8.05 µM (inactive)
- GI50 [59]: 5.02 µM (inactive)

Structure (SMILES): O=C1C(CN2CCCC2)CCC1CN1CCCC1 (configuration not stated)
- GI50 [1]: > 100 µM (inactive)
- GI50 [2]: > 100 µM (inactive)
- GI50 [3]: 15.8 µM (inactive)
- GI50 [4]: 18.3 µM (inactive)
- GI50 [5]: 17.5 µM (inactive)
- GI50 [6]: 5.31 µM (inactive)
- GI50 [7]: 19.4 µM (inactive)
- GI50 [8]: 17.9 µM (inactive)
- GI50 [9]: > 100 µM (inactive)
- GI50 [10]: > 100 µM (inactive)
- GI50 [11]: 20.7 µM (inactive)
- GI50 [12]: 20.4 µM (inactive)
- GI50 [13]: 20 µM (inactive)
- GI50 [14]: 97.3 µM (inactive)
- GI50 [15]: 17.8 µM (inactive)
- GI50 [16]: 16.8 µM (inactive)
- GI50 [17]: > 48.2 µM (inactive)
- GI50 [18]: 2.42 µM (inactive)
- GI50 [19]: 15.8 µM (inactive)
- GI50 [20]: 18.3 µM (inactive)
- GI50 [21]: 26.7 µM (inactive)
- GI50 [22]: 17.5 µM (inactive)
- GI50 [23]: > 100 µM (inactive)
- GI50 [24]: 17.6 µM (inactive)
- GI50 [25]: 12.9 µM (inactive)
- GI50 [26]: 27.9 µM (inactive)
- GI50 [27]: 14.4 µM (inactive)
- GI50 [28]: 15.1 µM (inactive)
- GI50 [29]: 17.7 µM
- GI50 [30]: 3.59 µM (inactive)
- GI50 [31]: 22.3 µM (inactive)
- GI50 [32]: 2.9 µM (inactive)
- GI50 [33]: > 49.7 µM (inactive)
- GI50 [34]: 11 µM (inactive)
- GI50 [35]: > 100 µM (inactive)
- GI50 [36]: > 41.3 µM (inactive)
- GI50 [37]: 21.2 µM (inactive)
- GI50 [38]: > 100 µM (inactive)
- GI50 [39]: 13.5 µM (inactive)
- GI50 [40]: 19.5 µM (inactive)
- GI50 [41]: > 100 µM (inactive)
- GI50 [42]: 20.7 µM (inactive)
- GI50 [43]: 17.1 µM (inactive)
- GI50 [44]: 23.9 µM (inactive)
- GI50 [45]: > 100 µM (inactive)
- GI50 [46]: 23.7 µM (inactive)
- GI50 [47]: > 100 µM (inactive)
- GI50 [48]: 17.3 µM (inactive)
- GI50 [49]: 4.12 µM (inactive)
- GI50 [50]: 5.71 µM (inactive)
- GI50 [51]: 17.5 µM (inactive)
- GI50 [52]: 3.52 µM (inactive)
- GI50 [53]: 20.8 µM (inactive)
- GI50 [54]: 18.7 µM (inactive)
- GI50 [55]: 15.8 µM (inactive)
- GI50 [56]: 1.9 µM (inactive)
- GI50 [57]: 17.4 µM (inactive)
- GI50 [58]: 20.8 µM (inactive)
- GI50 [59]: 16 µM (inactive)

Structure (SMILES): COc1cc(C2c3cc4c(cc3OC(NNC(N)=O)C2C)OCO4)cc(OC)c1O (configuration not stated)
- GI50 [1]: 2.12 µM (inactive)
- GI50 [2]: 3.45 µM (inactive)
- GI50 [3]: 5.93 µM (inactive)
- GI50 [4]: 4.5 µM (inactive)
- GI50 [5]: 24.5 µM (inactive)
- GI50 [6]: 2.58 µM (inactive)
- GI50 [7]: 1.64 µM (inactive)
- GI50 [8]: 0.805 µM (active)
- GI50 [9]: 3.41 µM (inactive)
- GI50 [10]: 2.1 µM (inactive)
- GI50 [11]: 4.92 µM (inactive)
- GI50 [12]: 0.598 µM (active)
- GI50 [13]: 3.13 µM (inactive)
- GI50 [14]: 3.96 µM (inactive)
- GI50 [15]: 8.04 µM (inactive)
- GI50 [16]: 3.19 µM (inactive)
- GI50 [17]: 6.65 µM (inactive)
- GI50 [18]: 0.867 µM (active)
- GI50 [19]: 2.99 µM (inactive)
- GI50 [20]: 13.8 µM (inactive)
- GI50 [21]: 4.9 µM (inactive)
- GI50 [22]: 0.512 µM (active)
- GI50 [23]: 1.04 µM (active)
- GI50 [24]: 0.324 µM (active)
- GI50 [25]: 1.12 µM (active)
- GI50 [26]: 1.62 µM (inactive)
- GI50 [27]: 15.3 µM (inactive)
- GI50 [28]: 0.615 µM (active)
- GI50 [29]: 13 µM
- GI50 [30]: 1.64 µM (inactive)
- GI50 [31]: 2.22 µM (inactive)
- GI50 [32]: 0.433 µM (active)
- GI50 [33]: > 28.4 µM (inactive)
- GI50 [34]: 7.91 µM (inactive)
- GI50 [35]: 7.29 µM (inactive)
- GI50 [36]: 6.59 µM (inactive)
- GI50 [37]: 6.18 µM (inactive)
- GI50 [38]: 0.813 µM (active)
- GI50 [39]: 5.05 µM (inactive)
- GI50 [40]: 0.933 µM (active)
- GI50 [41]: 5.48 µM (inactive)
- GI50 [42]: > 43.9 µM (inactive)
- GI50 [43]: 1.03 µM (active)
- GI50 [44]: 21.3 µM (inactive)
- GI50 [45]: 2.54 µM (inactive)
- GI50 [46]: 1.67 µM (inactive)
- GI50 [47]: 3.11 µM (inactive)
- GI50 [48]: 0.91 µM (active)
- GI50 [49]: 1.2 µM (inactive)
- GI50 [50]: 2.59 µM (inactive)
- GI50 [51]: 1.58 µM (inactive)
- GI50 [52]: 2.5 µM (inactive)
- GI50 [53]: 8.26 µM (inactive)
- GI50 [54]: 27.4 µM (inactive)
- GI50 [55]: 2.73 µM (inactive)
- GI50 [56]: 0.285 µM (active)
- GI50 [57]: > 100 µM (inactive)
- GI50 [58]: 4.06 µM (inactive)
- GI50 [59]: 0.274 µM (active)
